From paper PMC3673990, “Physicochemical Characterization of a Thermostable Alcohol Dehydrogenase from Pyrobaculum aerophilum” (PLoS ONE, 2013)

Legend:
PyAeADHII [1] = biological target: T1, PyAeADHII (Pyrobaculum aerophilum, UniProt Q8ZUP0); assay: spectrophotometric NADPH oxidation at […] nm; type: biochemical; conditions: 0.3 mM NADPH, 50 mM sodium phosphate pH 7.5, 37 °C; reduction to alpha-tetralol
T1 construct: gene PAE2687; structural zinc only (Cys-91, Cys-94, Cys-97, Cys-105); Asn-39, Ser-61, Ile-147, Arg-88 in active site
T1 sequence (Q8ZUP0 entry or part of it): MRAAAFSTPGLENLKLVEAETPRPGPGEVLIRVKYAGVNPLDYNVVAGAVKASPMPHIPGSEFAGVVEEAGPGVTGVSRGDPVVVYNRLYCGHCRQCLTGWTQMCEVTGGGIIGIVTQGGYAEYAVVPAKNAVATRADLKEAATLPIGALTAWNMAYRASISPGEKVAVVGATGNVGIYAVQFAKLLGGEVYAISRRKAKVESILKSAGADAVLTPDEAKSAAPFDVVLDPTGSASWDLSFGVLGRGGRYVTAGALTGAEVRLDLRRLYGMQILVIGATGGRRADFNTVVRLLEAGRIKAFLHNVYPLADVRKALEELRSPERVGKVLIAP

PyAeADHII [2] = biological target: T1, PyAeADHII; assay: X-ray co-crystal structure, […] Å; type: binding; conditions: modelled as NADPH, NADP+ not excluded; pH 7.5

| Structure (SMILES) | spectrophotometric NADPH oxidation at 340 nm (PyAeADHII [1]) | X-ray co-crystal structure, 2.35 Å (PyAeADHII [2]) |
| --- | --- | --- |
| O=C1CCCc2ccccc21 [α-tetralone] | The standard assay for the reduction reaction of α-tetralone |  |
| NC(=O)C1=CN([C@@H]2O[C@H](COP(=O)(O)OP(=O)(O)OC[C@H]3O[C@@H](n4cnc5c(N)ncnc54)[C@H](OP(=O)(O)O)[C@@H]3O)[C@@H](O)[C@H]2O)C=CC1 [NADPH] |  | we determined the co-crystal structure of PyAeADHII monomer bound to NADPH |
